Several values for one entry are separate records, joined by “and”; a condition that tells them apart may be missing. Equal values may be shown once. Toxic doses and inconclusive results are not listed. Rule for the calls: active = survival T/C of 150% or more; inactive = T/C below 125% in these data.
Tested on: P388 leukemia ip, CD2F1 mice, survival T/C
Test: NCI In Vivo Anticancer Drug Screen. Data for tumor model P388 Leukemia (intraperitoneal) in CD2F1 (CDF1) mice
Conditions: endpoint: median survival time, higher = longer survival
Outline: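 Mice carrying the transplanted tumor received test compound or vehicle. Survival was recorded in each group, and the value is the treated-group measurement divided by that of the vehicle-treated control group.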

[1] = dose: 50.0 mg/kg/injection, schedule: Q04DX003 (ip), vehicle: saline with Tween-80
[2] = dose: 100.0 mg/kg/injection, schedule: Q04DX003 (ip), vehicle: saline with Tween-80
[3] = dose: 25.0 mg/kg/injection, schedule: Q04DX003 (ip), vehicle: saline with Tween-80
[4] = dose: 50.0 mg/kg/injection, schedule: Q01DX009 (ip), vehicle: saline
[5] = dose: 50.0 mg/kg/injection, schedule: Q01DX005 (ip), vehicle: saline with Tween-80
[6] = dose: 100.0 mg/kg/injection, schedule: Q01DX005 (ip), vehicle: saline with Tween-80
[7] = dose: 25.0 mg/kg/injection, schedule: Q01DX009 (ip), vehicle: saline with Tween-80
[8] = dose: 50.0 mg/kg/injection, schedule: Q01DX009 (ip), vehicle: saline with Tween-80
[9] = dose: 100.0 mg/kg/injection, schedule: Q01DX009 (ip), vehicle: saline with Tween-80
[10] = dose: 6.25 mg/kg/injection, schedule: Q01DX009 (ip), vehicle: saline with Tween-80
[11] = dose: 12.5 mg/kg/injection, schedule: Q01DX009 (ip), vehicle: saline with Tween-80
[12] = dose: 60.0 mg/kg/injection, schedule: Q01DX005 (ip), vehicle: saline with Tween-80
[13] = dose: 120.0 mg/kg/injection, schedule: Q01DX005 (ip), vehicle: saline with Tween-80
[14] = dose: 240.0 mg/kg/injection, schedule: Q01DX005 (ip), vehicle: saline with Tween-80

Measured: T/C

Oc1cc2c(ccc3ccccc32)c2c1CCC2
inactive: dose: 6.25 mg/kg/injection, schedule: Q01DX001 (ip), vehicle: Klucel (hydroxypropylcellulose) (HPC) 106 % of control | dose: 12.5 mg/kg/injection, schedule: Q01DX001 (ip), vehicle: Klucel (hydroxypropylcellulose) (HPC) 104 % of control | dose: 25.0 mg/kg/injection, schedule: Q01DX001 (ip), vehicle: Klucel (hydroxypropylcellulose) (HPC) 119 % of control

CC(=O)OC1NC(=O)C(OC(C)=O)NC1=O (stereo not drawn)
inactive: dose: 25.0 mg/kg/injection, schedule: Q01DX005 (ip), vehicle: Klucel (hydroxypropylcellulose) (HPC) 100 % of control | dose: 50.0 mg/kg/injection, schedule: Q01DX005 (ip), vehicle: Klucel (hydroxypropylcellulose) (HPC) 98 % of control and 102 % of control (2×) | dose: 100.0 mg/kg/injection, schedule: Q01DX005 (ip), vehicle: Klucel (hydroxypropylcellulose) (HPC) 101 % of control (2×) and 120 % of control | dose: 200.0 mg/kg/injection, schedule: Q01DX005 (ip), vehicle: Klucel (hydroxypropylcellulose) (HPC) 102 % of control and 107 % of control and 110 % of control

O=C1CCCCC1C1(O)C(=O)Nc2ccccc21 (stereo not drawn)
inactive: dose: 60.0 mg/kg/injection, schedule: Q01DX005 (ip), vehicle: saline 98 % of control | dose: 120.0 mg/kg/injection, schedule: Q01DX005 (ip), vehicle: saline 89 % of control | dose: 240.0 mg/kg/injection, schedule: Q01DX005 (ip), vehicle: saline 89 % of control

Cc1nc2c(ncn2C2OC(CO)C(O)C2O)c(=O)[nH]1 (stereo not drawn)
inactive: [1] 96 % of control | [2] 101 % of control | dose: 200.0 mg/kg/injection, schedule: Q04DX003 (ip), vehicle: saline with Tween-80 109 % of control | dose: 400.0 mg/kg/injection, schedule: Q04DX003 (ip), vehicle: saline with Tween-80 111 % of control

CN(C)C(=O)Nc1cccc(OC(=O)Nc2ccccc2)c1
inactive: [3] 101 % of control | [1] 101 % of control | [2] 90 % of control

CS(=O)(=O)NC(=O)CCC(=O)Nc1ccc(Cl)cc1
inactive: dose: 100.0 mg/kg/injection, schedule: Q01DX001 (ip), vehicle: saline with Tween-80 100 % of control | dose: 200.0 mg/kg/injection, schedule: Q01DX001 (ip), vehicle: saline with Tween-80 97 % of control | dose: 400.0 mg/kg/injection, schedule: Q01DX001 (ip), vehicle: saline with Tween-80 96 % of control

COc1cc(C2C3=C(CC(C)(C)CC3=O)N(CC(=O)O)C3=C2C(=O)CC(C)(C)C3)ccc1O
inactive: [4] 95 % of control | dose: 100.0 mg/kg/injection, schedule: Q01DX009 (ip), vehicle: saline 102 % of control | dose: 200.0 mg/kg/injection, schedule: Q01DX009 (ip), vehicle: saline 113 % of control

CC=C/C=C/[C@@H]1O[C@](O)([C@H](CC)C(=O)NC/C=C/C=C(\C)[C@@H](OC)[C@@H](C)[C@@H]2O[C@H](/C=C/C=C/C=C(\C)C(=O)c3c(O)cc[nH]c3=O)[C@H](O)[C@@H]2O)[C@H](O)[C@H](O)C1(C)C
inactive: dose: 4.5 mg/kg/injection, schedule: Q01DX009 (ip), vehicle: Klucel (hydroxypropylcellulose) (HPC) 108 % of control | dose: 9.0 mg/kg/injection, schedule: Q01DX009 (ip), vehicle: Klucel (hydroxypropylcellulose) (HPC) 108 % of control | dose: 18.0 mg/kg/injection, schedule: Q01DX009 (ip), vehicle: Klucel (hydroxypropylcellulose) (HPC) 104 % of control | dose: 36.0 mg/kg/injection, schedule: Q01DX009 (ip), vehicle: Klucel (hydroxypropylcellulose) (HPC) 103 % of control | dose: 50.0 mg/kg/injection, schedule: Q01DX009 (ip), vehicle: Klucel (hydroxypropylcellulose) (HPC) 98 % of control | dose: 100.0 mg/kg/injection, schedule: Q01DX009 (ip), vehicle: Klucel (hydroxypropylcellulose) (HPC) 99 % of control | dose: 200.0 mg/kg/injection, schedule: Q01DX009 (ip), vehicle: Klucel (hydroxypropylcellulose) (HPC) 99 % of control | dose: 400.0 mg/kg/injection, schedule: Q01DX009 (ip), vehicle: Klucel (hydroxypropylcellulose) (HPC) 102 % of control

N/N=C1/C=Cc2cccc3cccc1c23
inactive: [5] 89 % of control | [6] 89 % of control

COc1ccc(C[n+]2ccc3ccccc3c2C#N)cc1OC
inactive: dose: 12.5 mg/kg/injection, schedule: Q04DX002 (ip), vehicle: saline 111 % of control | dose: 25.0 mg/kg/injection, schedule: Q04DX002 (ip), vehicle: saline 109 % of control

CCOc1cc2c(cc1C(C)c1ccccc1)OCO2 (stereo not drawn)
inactive: [5] 108 % of control | [6] 101 % of control | dose: 200.0 mg/kg/injection, schedule: Q01DX005 (ip), vehicle: saline with Tween-80 101 % of control

c1ccc(N=P(c2ccccc2)(c2ccccc2)c2ccccc2)cc1
inactive: [7] 96 % of control | [8] 108 % of control | [9] 108 % of control

NC(CO)C(O)c1ccc(N=Nc2ccc(O)cc2)cc1 (stereo not drawn)
inactive: [7] 95 % of control | [8] 100 % of control | [9] 95 % of control

CS/C(=C/c1ccc2ccccc2[n+]1C)N1CCSCC1
inactive: dose: 1.56 mg/kg/injection, schedule: Q01DX005 (ip), vehicle: saline with Tween-80 108 % of control | dose: 3.13 mg/kg/injection, schedule: Q01DX005 (ip), vehicle: saline with Tween-80 113 % of control | dose: 6.25 mg/kg/injection, schedule: Q01DX005 (ip), vehicle: saline with Tween-80 113 % of control

CC1OC1C(=O)Sc1ccccc1 (stereo not drawn)
inactive: dose: 12.5 mg/kg/injection, schedule: Q01DX009 (ip), vehicle: saline 105 % of control | dose: 25.0 mg/kg/injection, schedule: Q01DX009 (ip), vehicle: saline 110 % of control | [4] 106 % of control

C[Si](C)(C)CN1CCCC1
inactive: dose: 50.0 mg/kg/injection, schedule: Q01DX005 (ip), vehicle: saline 108 % of control | dose: 100.0 mg/kg/injection, schedule: Q01DX005 (ip), vehicle: saline 101 % of control

CCCCP(=O)(CCCC)CCCC.CCCCP(=O)(CCCC)CCCC.CCCCP(=O)(CCCC)CCCC.CCCCP(=O)(CCCC)CCCC.[Mn+2].[O-][Cl+3]([O-])([O-])O
inactive: dose: 50.0 mg/kg/injection, schedule: Q01DX009 (ip), vehicle: saline + Tween-80 + alcohol 101 % of control | [8] 104 % of control | dose: 100.0 mg/kg/injection, schedule: Q01DX009 (ip), vehicle: saline + Tween-80 + alcohol 116 % of control | [9] 119 % of control | dose: 200.0 mg/kg/injection, schedule: Q01DX009 (ip), vehicle: saline + Tween-80 + alcohol 122 % of control

Cc1ccc(N=C(SSC(Cl)(Cl)Cl)SSC(Cl)(Cl)Cl)cc1
inactive: [10] 91 % of control | [11] 99 % of control | [7] 100 % of control | dose: 50.0 mg/kg/injection, schedule: Q01DX009 (ip), vehicle: saline + alcohol 104 % of control | [8] 101 % of control

CC1=C(C(=O)Nc2ccccc2C)C(c2ccco2)C(C(=O)Nc2ccccc2C)=C(C)N1
inactive: [12] 96 % of control | [13] 94 % of control | [14] 97 % of control

N#Cc1c(-c2ccccc2)c(-c2ccccc2)nn(CCC(=O)O)c1=O
inactive: dose: 25.0 mg/kg/injection, schedule: Q04DX002 (ip), vehicle: distilled water + Tween-80 101 % of control | dose: 50.0 mg/kg/injection, schedule: Q04DX002 (ip), vehicle: distilled water + Tween-80 102 % of control | dose: 100.0 mg/kg/injection, schedule: Q04DX002 (ip), vehicle: distilled water + Tween-80 108 % of control

OCc1c(CO)c2cccn2c2c1cnn2-c1ccccc1
inactive: [12] 100 % of control | [13] 90 % of control | [14] 89 % of control

CNC(=O)Nc1cccc(C2(C)OCCS2)c1 (stereo not drawn)
inactive: [12] 100 % of control | [13] 94 % of control | [14] 99 % of control

CCCCCCCC(O)CCCCCCC
inactive: dose: 100.0 mg/kg/injection, schedule: Q04DX003 (ip), vehicle: other 100 % of control | dose: 200.0 mg/kg/injection, schedule: Q04DX003 (ip), vehicle: other 100 % of control | dose: 400.0 mg/kg/injection, schedule: Q04DX003 (ip), vehicle: other 109 % of control

Cc1cc(O)c(C2(C)CCC3CC32C)cc1Br (stereo not drawn)
inactive: [7] 97 % of control | [8] 105 % of control | [9] 107 % of control | dose: 200.0 mg/kg/injection, schedule: Q01DX009 (ip), vehicle: saline with Tween-80 114 % of control

Clc1ccc(CSSCc2ccc(Cl)cc2)cc1
inactive: dose: 12.5 mg/kg/injection, schedule: Q04DX003 (ip), vehicle: saline with Tween-80 100 % of control | [3] 100 % of control | [1] 100 % of control | [2] 107 % of control

CNC(=S)N/N=C/c1ccc([N+](=O)[O-])s1
inactive: [10] 99 % of control | [11] 89 % of control | [7] 88 % of control

Reference: PubChem BioAssay AID330 (DTP/NCI, 2004)
